Drawing on PubChem BioAssay (NCI), this text covers TGI for 10 compounds.

Among the test systems are K-562 leukemia; MCF7 breast; OVCAR-8 ovarian; T-47D breast; SK-MEL-5 melanoma; UO-31 renal; HOP-62 NSCLC; NCI/ADR-RES ovarian; IGROV1 ovarian; CCRF-CEM leukemia; DU-145 prostate; U251 CNS; HOP-92 NSCLC; NCI-H460 lung; HL-60(TB) leukemia; RXF 393 renal; SF-268 CNS; MDA-N; M14 melanoma; MDA-MB-231 breast.
Test in all cases: growth of human tumour cells (NCI), 48 h

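The compound was tested at five concentrations on cells cultured in 96-well plates, with a 48-hour exposure period. TGI is the concentration that stops growth completely.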 Where a SMILES comes first, the peptide text is derived from it. The star is where a group is joined. Cbz = O=C(OCc1ccccc1)*

`C/C=C(/C)C(=O)O[C@@H]1CCN2CC[C@H](COC(=O)/C(=C/C)CO)C12` (stereo not given in full): the TGI in the assay on K-562 leukemia was 18.3 µM; in the assay with MCF7 breast it was greater than 100 µM; with OVCAR-8 ovarian it was greater than 100 µM; with T-47D breast, greater than 100 µM; in the assay with SK-MEL-5 melanoma, greater than 62 µM; in the assay with UO-31 renal it was greater than 100 µM. The TGI with HOP-62 NSCLC, in the assay with NCI/ADR-RES ovarian, in the assay with IGROV1 ovarian, with CCRF-CEM leukemia, in the assay on DU-145 prostate and in the assay with U251 CNS was greater than 100 µM throughout. Besides, the TGI in the assay with HOP-92 NSCLC, in the assay on NCI-H460 lung, in the assay with HL-60(TB) leukemia, with RXF 393 renal, with SF-268 CNS and with MDA-N was greater than 100 µM throughout. Moreover, the TGI was 36.3 µM in the assay on M14 melanoma and greater than 100 µM in the assay on MDA-MB-231 breast.

As to `NC(=O)C(C(N)=O)=C(O)C(=O)/C=C(\O)c1ccccc1`, the TGI in the assay with K-562 leukemia is 29.9 µM; in the assay with MCF7 breast, greater than 100 µM; in the assay on OVCAR-8 ovarian it was greater than 100 µM; in the assay with T-47D breast it was greater than 100 µM; with SK-MEL-5 melanoma, greater than 100 µM; in the assay on UO-31 renal it was greater than 100 µM. Also, the TGI was greater than 100 µM in the assay with HOP-62 NSCLC; greater than 100 µM in the assay with NCI/ADR-RES ovarian; greater than 100 µM in the assay with IGROV1 ovarian; 52.5 µM with CCRF-CEM leukemia; greater than 100 µM in the assay on DU-145 prostate; greater than 100 µM in the assay on U251 CNS. Also, the TGI in the assay on HOP-92 NSCLC is greater than 100 µM; with NCI-H460 lung it was greater than 100 µM; in the assay with HL-60(TB) leukemia, 58.8 µM; in the assay on RXF 393 renal it was greater than 100 µM; with SF-268 CNS, greater than 100 µM; with MDA-N, greater than 100 µM. Moreover, the TGI in the assay on M14 melanoma and with MDA-MB-231 breast was greater than 100 µM throughout.

In the case of `CCCCCCc1cc2cc(C(=O)Nc3ccccc3)c(=N)oc2cc1O`, the TGI in the assay on K-562 leukemia was greater than 100 µM; in the assay on MCF7 breast, greater than 100 µM; with OVCAR-8 ovarian, greater than 49.6 µM; in the assay on T-47D breast it was greater than 47.1 µM; in the assay with SK-MEL-5 melanoma, 8.41 µM; in the assay with UO-31 renal, 12.7 µM. The TGI is 11.8 µM in the assay on HOP-62 NSCLC; greater than 100 µM in the assay with NCI/ADR-RES ovarian; greater than 100 µM with IGROV1 ovarian; greater than 37.9 µM in the assay on CCRF-CEM leukemia; greater than 100 µM in the assay with DU-145 prostate; greater than 33.6 µM in the assay with U251 CNS. Further, the TGI with HOP-92 NSCLC was greater than 100 µM; in the assay on NCI-H460 lung, greater than 100 µM; with HL-60(TB) leukemia, greater than 100 µM; in the assay on RXF 393 renal, greater than 100 µM; in the assay on SF-268 CNS, greater than 100 µM; with MDA-N, greater than 34.3 µM. The TGI with M14 melanoma is greater than 29.4 µM; in the assay on MDA-MB-231 breast, greater than 100 µM.

For `CCOC(=O)CN1C(=O)c2ccc(NC(=O)C(=O)O)cc2S1(=O)=O`, the TGI with K-562 leukemia, in the assay with MCF7 breast, in the assay on OVCAR-8 ovarian, in the assay on T-47D breast, with SK-MEL-5 melanoma and in the assay with UO-31 renal was greater than 100 µM in each case. In addition, the TGI with HOP-62 NSCLC, in the assay on NCI/ADR-RES ovarian, in the assay with IGROV1 ovarian, with CCRF-CEM leukemia, in the assay on DU-145 prostate and with U251 CNS was greater than 100 µM throughout. For the same compound, the TGI in the assay with HOP-92 NSCLC, in the assay with NCI-H460 lung, in the assay on HL-60(TB) leukemia, in the assay on RXF 393 renal, in the assay with SF-268 CNS and in the assay on MDA-N was greater than 100 µM in each case. Besides, the TGI in the assay on M14 melanoma and in the assay with MDA-MB-231 breast was greater than 100 µM each time.

Consider `O=C(O)CCC(NC(=O)OCc1ccccc1)C(=O)NC(Cc1cnc[nH]1)C(=O)O` (stereo not drawn) (Cbz-Glu-His-OH; configuration not given here), for which the TGI in the assay with K-562 leukemia, with MCF7 breast, in the assay on OVCAR-8 ovarian, in the assay with T-47D breast, in the assay on SK-MEL-5 melanoma and in the assay on UO-31 renal was greater than 100 µM throughout. In addition, the TGI in the assay with HOP-62 NSCLC, in the assay with NCI/ADR-RES ovarian, in the assay with IGROV1 ovarian, in the assay with CCRF-CEM leukemia, with DU-145 prostate and in the assay on U251 CNS was greater than 100 µM throughout. Also, the TGI with HOP-92 NSCLC, in the assay on NCI-H460 lung, in the assay on HL-60(TB) leukemia, in the assay with RXF 393 renal, in the assay on SF-268 CNS and with MDA-N was greater than 100 µM throughout. For the same compound, the TGI with M14 melanoma and in the assay with MDA-MB-231 breast was greater than 100 µM throughout.

Take `COc1cc(C2c3cc4c(cc3OC3(OC)COC(=O)C23)OCO4)cc(OC)c1OC(C)=O` (stereo not given): the TGI in the assay with K-562 leukemia is greater than 100 µM; in the assay on MCF7 breast, greater than 36.4 µM; in the assay on OVCAR-8 ovarian, greater than 75.2 µM; with T-47D breast, greater than 100 µM; with SK-MEL-5 melanoma it was 34.6 µM; with UO-31 renal, greater than 100 µM. The TGI with HOP-62 NSCLC was 31.7 µM; in the assay with NCI/ADR-RES ovarian it was 10.4 µM; with IGROV1 ovarian, greater than 100 µM; in the assay on CCRF-CEM leukemia, greater than 100 µM; with DU-145 prostate, greater than 100 µM; with U251 CNS it was greater than 100 µM. Moreover, the TGI in the assay on HOP-92 NSCLC was greater than 100 µM; in the assay with NCI-H460 lung, greater than 59.7 µM; with HL-60(TB) leukemia, 12.8 µM; in the assay on RXF 393 renal it was 7.49 µM; in the assay with SF-268 CNS, greater than 100 µM; in the assay on MDA-N it was 2.55 µM. For the same compound, the figures for the TGI with M14 melanoma and in the assay on MDA-MB-231 breast were greater than 74.2 µM and greater than 100 µM, respectively.

With `Cn1cc(NC(=O)Nc2cc(C(=O)Nc3cc(C(=O)Nc4ccc(S(=O)(=O)O)c5cc(S(=O)(=O)O)ccc45)n(C)c3)n(C)c2)cc1C(=O)Nc1cc(C(=O)Nc2ccc(S(=O)(=O)O)c3cc(S(=O)(=O)O)ccc23)n(C)c1`, the TGI with K-562 leukemia, in the assay with MCF7 breast, with OVCAR-8 ovarian, with T-47D breast, in the assay with SK-MEL-5 melanoma and in the assay with UO-31 renal was greater than 100 µM in each case. Besides, the TGI in the assay with HOP-62 NSCLC, in the assay on NCI/ADR-RES ovarian, in the assay with IGROV1 ovarian, with CCRF-CEM leukemia, in the assay on DU-145 prostate and in the assay on U251 CNS was greater than 100 µM in each case. For the same compound, the TGI in the assay with HOP-92 NSCLC, in the assay with NCI-H460 lung, with HL-60(TB) leukemia, in the assay with RXF 393 renal, in the assay on SF-268 CNS and with MDA-N was greater than 100 µM each time. The TGI in the assay on M14 melanoma and in the assay on MDA-MB-231 breast was greater than 100 µM throughout.

As for `CCOC1OC(=O)c2cc3ccc4c(c3c(-c3ccc5c(c3)OCO5)c21)OCO4` (stereo not given), the TGI in the assay on K-562 leukemia is greater than 100 µM; with MCF7 breast it was greater than 100 µM; with OVCAR-8 ovarian it was greater than 100 µM; in the assay with T-47D breast, greater than 100 µM; in the assay with SK-MEL-5 melanoma, 27 µM; in the assay on UO-31 renal it was greater than 100 µM. Moreover, the TGI was greater than 100 µM with HOP-62 NSCLC; greater than 74.6 µM with NCI/ADR-RES ovarian; greater than 100 µM with IGROV1 ovarian; greater than 100 µM in the assay on CCRF-CEM leukemia; greater than 100 µM in the assay with DU-145 prostate; greater than 100 µM with U251 CNS. The TGI with HOP-92 NSCLC is greater than 100 µM; in the assay on NCI-H460 lung it was 28.1 µM; in the assay with HL-60(TB) leukemia it was greater than 100 µM; with RXF 393 renal, 97.9 µM; with SF-268 CNS, greater than 100 µM; in the assay on MDA-N, 5.2 µM. Besides, the TGI in the assay on M14 melanoma is 79.3 µM; in the assay on MDA-MB-231 breast, greater than 100 µM.

As for `Clc1ccc(C2C3COc4ccccc4C3=NN2c2ccccc2)cc1` (stereo not given), the TGI in the assay with K-562 leukemia was 21.9 µM; in the assay on MCF7 breast it was greater than 100 µM; in the assay on OVCAR-8 ovarian, greater than 100 µM; in the assay on T-47D breast, greater than 100 µM; with SK-MEL-5 melanoma, greater than 100 µM; in the assay on UO-31 renal, greater than 100 µM. For the same compound, the TGI was greater than 100 µM with HOP-62 NSCLC; greater than 100 µM with NCI/ADR-RES ovarian; greater than 100 µM in the assay with IGROV1 ovarian; greater than 37.7 µM in the assay with CCRF-CEM leukemia; greater than 100 µM with DU-145 prostate; greater than 100 µM in the assay with U251 CNS. Moreover, the TGI with HOP-92 NSCLC is greater than 100 µM; with NCI-H460 lung, greater than 100 µM; in the assay on HL-60(TB) leukemia, greater than 68.2 µM; in the assay on RXF 393 renal, greater than 100 µM; with SF-268 CNS it was greater than 100 µM; with MDA-N, greater than 67.4 µM. Further, the TGI in the assay on M14 melanoma and with MDA-MB-231 breast was greater than 100 µM in each case.

With `O=[N+]([O-])/C(C(Cl)=C(Cl)Cl)=C(/Cl)Sc1ccccc1`, the TGI in the assay on K-562 leukemia was 2.4 µM; in the assay with MCF7 breast, 2.99 µM; in the assay on OVCAR-8 ovarian, 0.786 µM; in the assay with T-47D breast, 7.47 µM; in the assay with SK-MEL-5 melanoma, 4.47 µM; with UO-31 renal, 3.02 µM. Also, the TGI was determined as 9.33 µM in the assay on HOP-62 NSCLC; 2.35 µM with NCI/ADR-RES ovarian; 4.69 µM with IGROV1 ovarian; 0.435 µM with CCRF-CEM leukemia; 11.2 µM with DU-145 prostate; 5.04 µM in the assay with U251 CNS. Moreover, the TGI in the assay on HOP-92 NSCLC was determined as 3.85 µM; with NCI-H460 lung it was 34.6 µM; in the assay on HL-60(TB) leukemia it was 0.318 µM; in the assay on RXF 393 renal, 9.86 µM; in the assay on SF-268 CNS, 5.71 µM; in the assay with MDA-N it was 3.78 µM. Also, the TGI in the assay on M14 melanoma worked out at 3.24 µM; in the assay on MDA-MB-231 breast it was 3.4 µM.
